Reference: the supplement of paper PMC10307832

Assays:
Experiment in all cases: relative viability (nuclei count vs DMSO), 5 days (fraction); higher = more cells survive
Crenolanib + Palbociclib = compound: CC1(COc2ccc3c(c2)ncn3-c2ccc3cccc(N4CCC(N)CC4)c3n2)COC1 [Crenolanib] + CC(=O)c1c(C)c2cnc(Nc3ccc(N4CCNCC4)cn3)nc2n(C2CCCC2)c1=O [Palbociclib] (partner 0.5 µM)
How it was run: (§1)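 Cells from lung cancer lines were seeded into 1536-well plates and, one day later, dosed by pin tool. Treatments were either a single drug or a fixed dose of an anchor drug with five library-drug doses (not always all listed) in √10 steps. After 5 days, nuclei were stained in a one-step fixation (final 0.05% Triton X-100, 1% formaldehyde, 1 ug/ml Hoechst) and counted on 4× images, and relative viability is the treated-to-vehicle nuclei ratio, as the median of duplicate plates.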

Crenolanib + Navitoclax = compound: CC1(COc2ccc3c(c2)ncn3-c2ccc3cccc(N4CCC(N)CC4)c3n2)COC1 [Crenolanib] + CC1(C)CCC(c2ccc(Cl)cc2)=C(CN2CCN(c3ccc(C(=O)NS(=O)(=O)c4ccc(N[C@H](CCN5CCOCC5)CSc5ccccc5)c(S(=O)(=O)C(F)(F)F)c4)cc3)CC2)C1 [Navitoclax] (partner 0.5 µM)
How it was run: as §1

Tivantinib + Crizotinib = compound: O=C1NC(=O)[C@@H](c2cn3c4c(cccc24)CCC3)[C@@H]1c1c[nH]c2ccccc12 [Tivantinib] + C[C@@H](Oc1cc(-c2cnn(C3CCNCC3)c2)cnc1N)c1c(Cl)ccc(F)c1Cl [Crizotinib] (partner 1 µM)
How it was run: as §1

Tivantinib + Linsitinib = compound: O=C1NC(=O)[C@@H](c2cn3c4c(cccc24)CCC3)[C@@H]1c1c[nH]c2ccccc12 [Tivantinib] + C[C@]1(O)C[C@@H](c2nc(-c3ccc4ccc(-c5ccccc5)nc4c3)c3c(N)nccn32)C1 [Linsitinib] (partner 1 µM)
How it was run: as §1

| Cell Line | relative viability (Crenolanib + Palbociclib; first compound 0.01 µM) | relative viability (Crenolanib + Palbociclib; first compound 0.1 µM) | relative viability (Crenolanib + Palbociclib; first compound 0.3162 µM) | relative viability (Crenolanib + Palbociclib; first compound 1 µM) | relative viability (Crenolanib + Navitoclax; first compound 0.01 µM) | relative viability (Crenolanib + Navitoclax; first compound 0.03162 µM) | relative viability (Crenolanib + Navitoclax; first compound 0.1 µM) | relative viability (Crenolanib + Navitoclax; first compound 0.3162 µM) | relative viability (Crenolanib + Navitoclax; first compound 1 µM) | relative viability (Tivantinib + Crizotinib; first compound 0.01 µM) | relative viability (Tivantinib + Crizotinib; first compound 0.03162 µM) | relative viability (Tivantinib + Crizotinib; first compound 0.1 µM) | relative viability (Tivantinib + Crizotinib; first compound 0.3162 µM) | relative viability (Tivantinib + Linsitinib; first compound 0.01 µM) | relative viability (Tivantinib + Linsitinib; first compound 0.03162 µM) | relative viability (Tivantinib + Linsitinib; first compound 0.1 µM) | relative viability (Tivantinib + Linsitinib; first compound 0.3162 µM) | relative viability (Crenolanib + Palbociclib; first compound 0.03162 µM) |
| --- | --- | --- | --- | --- | --- | --- | --- | --- | --- | --- | --- | --- | --- | --- | --- | --- | --- | --- |
| PC-3 [JPC-3] | 0.563 | 0.543 | 0.534 | 0.568 | 0.783 | 0.788 | 0.754 | 0.841 | 0.869 | 1.03 | 1.05 | 0.996 | 0.759 | 0.929 | 1.04 | 1.01 | 0.708 |  |
| PC-14 | 0.489 | 0.473 | 0.593 | 0.354 | 1.08 | 1.01 | 0.986 | 1.11 | 0.988 | 0.912 | 0.883 | 0.934 | 0.894 | 0.941 | 0.923 | 0.931 | 0.892 | 0.53 |
| RERF-LC-KJ | 1.13 | 1.03 | 1.1 | 1.05 | 0.962 | 0.729 | 1.04 | 1.33 | 0.948 | 0.831 | 0.886 | 0.852 | 0.831 | 0.895 | 0.945 | 0.826 | 0.808 | 1.03 |
| SK-LU-1 | 0.368 | 0.328 | 0.412 | 0.333 | 0.923 | 1.02 | 0.472 | 1.05 | 0.803 | 0.95 | 1.01 | 0.872 | 0.716 | 1.07 | 1.17 | 0.982 | 1.14 | 0.394 |
| SK-MES-1 | 0.335 | 0.31 | 0.314 | 0.34 | 1.4 | 1.4 | 1.25 | 1.45 | 1.2 | 0.984 | 1.06 | 0.89 | 0.739 | 1.13 | 1.03 | 0.98 | 0.82 | 0.32 |
| SW 1573 | 0.369 | 0.422 | 0.368 | 0.42 | 1.11 | 1.17 | 0.867 | 1.03 | 1.23 | 0.751 | 0.761 | 0.902 | 0.496 | 0.762 | 0.853 | 0.77 | 0.789 | 0.458 |
